This data set addresses ABCB1 (Homo sapiens, UniProt P08183).

Sequence of ABCB1 (P08183 whole entry): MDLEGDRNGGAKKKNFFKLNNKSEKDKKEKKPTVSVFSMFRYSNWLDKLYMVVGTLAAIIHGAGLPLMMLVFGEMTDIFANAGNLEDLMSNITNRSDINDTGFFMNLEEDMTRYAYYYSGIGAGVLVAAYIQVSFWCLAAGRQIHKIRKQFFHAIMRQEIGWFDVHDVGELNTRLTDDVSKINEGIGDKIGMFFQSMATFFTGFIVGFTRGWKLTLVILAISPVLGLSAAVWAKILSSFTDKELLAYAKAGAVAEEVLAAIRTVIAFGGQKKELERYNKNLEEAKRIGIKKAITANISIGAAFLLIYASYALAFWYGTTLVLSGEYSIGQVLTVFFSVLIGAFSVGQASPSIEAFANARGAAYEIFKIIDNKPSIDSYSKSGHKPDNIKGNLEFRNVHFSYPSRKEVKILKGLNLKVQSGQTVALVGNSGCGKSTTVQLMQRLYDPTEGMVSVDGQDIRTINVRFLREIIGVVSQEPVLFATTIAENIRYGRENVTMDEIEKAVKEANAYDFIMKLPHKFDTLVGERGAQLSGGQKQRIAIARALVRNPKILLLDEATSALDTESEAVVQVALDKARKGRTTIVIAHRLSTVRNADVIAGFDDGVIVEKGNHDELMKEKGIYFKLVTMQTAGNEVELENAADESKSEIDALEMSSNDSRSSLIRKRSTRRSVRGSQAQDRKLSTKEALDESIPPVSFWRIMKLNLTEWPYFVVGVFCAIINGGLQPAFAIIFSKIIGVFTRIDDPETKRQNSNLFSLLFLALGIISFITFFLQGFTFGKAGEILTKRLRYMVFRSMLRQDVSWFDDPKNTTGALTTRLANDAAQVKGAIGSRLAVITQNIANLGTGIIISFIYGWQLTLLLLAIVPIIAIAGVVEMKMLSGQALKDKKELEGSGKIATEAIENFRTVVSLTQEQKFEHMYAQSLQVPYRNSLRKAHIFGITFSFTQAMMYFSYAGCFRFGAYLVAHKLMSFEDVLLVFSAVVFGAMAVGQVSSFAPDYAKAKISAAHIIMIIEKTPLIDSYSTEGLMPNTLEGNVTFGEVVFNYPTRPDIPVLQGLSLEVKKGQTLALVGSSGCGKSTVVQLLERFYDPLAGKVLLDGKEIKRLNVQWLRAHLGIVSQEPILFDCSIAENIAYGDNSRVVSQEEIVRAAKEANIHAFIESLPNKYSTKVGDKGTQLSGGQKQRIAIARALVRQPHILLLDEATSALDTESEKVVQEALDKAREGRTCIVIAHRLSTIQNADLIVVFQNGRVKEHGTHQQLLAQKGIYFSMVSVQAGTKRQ

Turning to `CC(=O)O[C@H]1C(=O)[C@@]2(C)[C@H]([C@H](OC(=O)c3ccccc3)[C@]3(O)C[C@H](OC(=O)[C@H](O)[C@@H](NC(=O)c4ccccc4)c4ccccc4)C(C)=C1C3(C)C)[C@]1(OC(C)=O)CO[C@@H]1C[C@@H]2O` [paclitaxel], the “radiolabelled substrate efflux from ABCB1-overexpressing cells” value was “selonsertib significantly decreased the efflux of [^3H]-paclitaxel in ABCB1-overexpressing cell lines KB-C2 and SW620/Ad300”.
